# Laboratory results taken from patent US20130129732A1, “METHOD FOR […]” (LANXESS Deutschland GmbH, priority 2009, published 2013).
# Legend:
# Format in all cases: cell-based
# Saccharomyces cerivisiae = assay: Microbial reduction (MLC) in clear apple juice seeded with Saccharomyces cerivisiae, preservative with PEF; settings: 10^5 CFU/ml, PEF 5 kV/cm, 3-6 J/ml, after 24 h
# Text: (§1) In the examples hereinafter, the Elcrack® apparatus of the Deutsche Institute für Lebensmitteltechnik e. V. [German Institute for food technology] was used for the PEF treatment.
# (§2) The treatment proceeded at differing field strengths and energy densities, wherein the pulse width was 20 μs and the pulse frequency 400 Hz.
# (§3) In the examples hereinafter, in each case clear apple juice was admixed with stirring by means of a propeller agitator with a microbial or spore suspension, then after approximately 3 minutes, optionally further antimicrobially active substances, and thereafter after approximately 2 minutes, DMDC. The microbial or spore suspension was added in such a manner that a defined amount of cells, generally 10^3 to 10^5 CFU/ml were present in the apple juice.
# (§4) The apple juice was then treated by PEF (using the above-described Elcrack® apparatus). As further microbially active substances, sodium benzoate or potassium sorbate were used.
# (§5) As a measure for microbial reduction, the median logarithmic cell count reduction (MLC) was determined. In this case the logarithm of the surviving cell count is subtracted from the logarithm of the initial cell count. The higher the MLC value, the higher the microbial reduction and the better the activity is.
# (§6) A: Bacillilus subtilis DSM 347 (ATCC 6633) B: Penicillium roqueforti DSM 1079 (ATCC 34908) C: Lactobacillus frigidus DSM 6235 D: Saccharomyces […] DSM 70449 (ATCC 18824)
# Penicillium roqueforti = assay: Microbial reduction (MLC) in clear apple juice seeded with Penicillium roqueforti, preservative with or without PEF; settings: 10^5 CFU/ml
# Text: as §1, §2, §3, §4, §5, §6
# Lactobacillus frigidus = assay: Microbial reduction (MLC) in clear apple juice seeded with Lactobacillus frigidus, preservative with or without PEF; settings: 10^5 CFU/ml, after 1 week
# Text: as §1, §2, §3, §4, §5, §6
# Bacillus subtilis = assay: Microbial reduction (MLC) in clear apple juice seeded with Bacillus subtilis, preservative with or without PEF; settings: 10^3 CFU/ml
# Text: as §1, §2, §3, §4, §5, §6
# [1] = PEF 30 kV/cm, 94-104 J/ml, after 24 h
# [2] = PEF 35 kV/cm, 110-116 J/ml, after 24 h
compound,measurement,setting,value
"COC(=O)OC(=O)OC [Example D1, dimethyl dicarbonate]",MLC (median logarithmic cell count reduction),Saccharomyces cerivisiae,min 7/24 h
"COC(=O)OC(=O)OC [VB1, dimethyl dicarbonate]",MLC (median logarithmic cell count reduction),"Penicillium roqueforti; no PEF, 21° C., after 24 h",6.4/24 h
"COC(=O)OC(=O)OC [Example C1, dimethyl dicarbonate]",MLC (median logarithmic cell count reduction),"Lactobacillus frigidus; PEF 30 kV/cm, 88-93 J/ml",3.6/1 week
"O=C([O-])c1ccccc1.[Na+] [VC2, sodium benzoate]",MLC (median logarithmic cell count reduction),"Lactobacillus frigidus; PEF 30 kV/cm, 88-93 J/ml",2.8/1 week
"COC(=O)OC(=O)OC [Example A4, dimethyl dicarbonate]",MLC (median logarithmic cell count reduction),"Bacillus subtilis; PEF 15 kV/cm, 23 J/ml, after 24 h",1.4/24 h
"C/C=C/C=C/C(=O)[O-].[K+] [VC3, potassium sorbate]",MLC (median logarithmic cell count reduction),"Lactobacillus frigidus; PEF 30 kV/cm, 88-93 J/ml",3.0/1 week
"COC(=O)OC(=O)OC [VC1, dimethyl dicarbonate]",MLC (median logarithmic cell count reduction),"Lactobacillus frigidus; no PEF, 21° C.",2.3/1 week
"COC(=O)OC(=O)OC [Example A5, dimethyl dicarbonate]",MLC (median logarithmic cell count reduction),"Bacillus subtilis; PEF 35 kV/cm, 111 J/ml, after 1 week",3.0/1 week
"O=C([O-])c1ccccc1.[Na+] [VB3, sodium benzoate]",MLC (median logarithmic cell count reduction),Penicillium roqueforti; [1],none; heavy
"O=C([O-])c1ccccc1.[Na+] [VD2, sodium benzoate]",MLC (median logarithmic cell count reduction),Saccharomyces cerivisiae,none; heavy
"COC(=O)OC(=O)OC [Example A1, dimethyl dicarbonate]",MLC (median logarithmic cell count reduction),Bacillus subtilis; [2],2.2/24 h
"O=C([O-])c1ccccc1.[Na+] [VA1, sodium benzoate]",MLC (median logarithmic cell count reduction),Bacillus subtilis; [2],2.0/24 h
"C/C=C/C=C/C(=O)[O-].[K+] [VB4, potassium sorbate]",MLC (median logarithmic cell count reduction),Penicillium roqueforti; [1],none; heavy
"C/C=C/C=C/C(=O)[O-].[K+] [VA2, potassium sorbate]",MLC (median logarithmic cell count reduction),Bacillus subtilis; [2],0.5/24 h
"C/C=C/C=C/C(=O)[O-].[K+] [VD3, potassium sorbate]",MLC (median logarithmic cell count reduction),Saccharomyces cerivisiae,none; heavy
"COC(=O)OC(=O)OC [Example B5, dimethyl dicarbonate]",MLC (median logarithmic cell count reduction),"Penicillium roqueforti; PEF 30 kV/cm, 94-104 J/ml, after 4 weeks",at least 7/4
